In patent publication US11278595B2, “Peptides comprising non-natural amino acids and methods of making and using the same” (Longevity Biotech, Inc., priority 2013, dated 2022):
Numbered stars: 1 amine (or outer) side, 2 acyl side, 3 side chain; on linkers, the order of the positions; unused ones are H or OH. Square brackets hold non-standard residues; d marks the D form. Peptide text beside a SMILES is read from it. ξ: configuration not given here. ξ(4-Aminopyrrolidine-3-CO) = O=C(C1CNCC1N[*:1])[*:2]; X3 = O=C(C1CCCC1N[*:1])[*:2]; β3hK = NCCCC[C@H](N)CC(=O)O; βAla = NCCC(=O)O

Tests used:
[1] = tested on: anti-CD3 stimulated naïve CD4+CD25− T cells; experiment: Inhibition assay of suppressive function of Treg from treated donor mice; assay type: cell-based; settings: compared to PBS Treg populations; 1:1 Treg to responder ratio; donors injected daily/5 days/i.p.
Procedure: Immediately following the final dose, mice were sacrificed, and single-cell suspensions were prepared from inguinal lymph nodes and spleens. CD4+ T cell populations from spleens and lymph nodes were enriched by negative selection with CD4-enrichment columns (R&D Systems, Minneapolis, Minn.), followed by CD25-PE positive selection with AutoMACS (Miltenyi Biotec, Auburn, Calif.). As determined by flow cytometric analysis, populations of Tregs and Teffs were consistently […] using this method (12). T cells were cultured in complete RPMI 1640 (RPMI 1640 [Invitrogen, Carlsbad, Calif.] supplemented with 10% FBS, 2 mM L-gluta-mine, 25 mM HEPES, 1 mM sodium pyruvate, […] nonessential amino acids, […] 2-ME, 100 U/ml penicillin, and […] streptomycin [Mediatech, Manassas, Va.]) in the presence of anti-CD3 (145-2C11; BD Pharmingen, San Diego, Calif.), 4YSyn, or N-4YSyn. […]
To assess whether VIP, LBT-V101 (SEQ ID NO: 22), LBT-V218 (SEQ ID NO: 18) and PBS treated splenocytes (SPC) suppress effector T cell proliferative responses, we evaluated SPC co-cultures from VIP-treated donors for their proliferative capacity in the presence of either anti-CD3. […] To test this hypothesis, we evaluated CD4+CD25+CD62Llow Treg isolated from naïve and VIP-treated mice for their capacity to inhibit CD3-mediated proliferation of CD4+CD25− naïve T cells. […]

[2] = tested on: dopaminergic neurons (TH+/Nissl+) in the SN; experiment: Parkinson's disease (MPTP) model, adoptive transfer of splenocytes from drug-treated donors; assay type: in vivo; settings: MPTP mice; donors 15 ug/day/5 days; FIG. 5
Procedure: Parkinson's Disease (PD) Model (not prophetic): Male C57/BL6 mice, 8-12 w old, housed in the IACUC approved housing were administered an analog described herein as well as a pharmaceutically acceptable carrier for five days at a dose between (0.1 nM and 100 nM). Thereafter, SPC and Tregs from the mice are harvested and then transferred to another set of MPTP intoxicated mice using the following protocol.
Immediately following the final dose, mice were sacrificed, and single-cell suspensions were prepared from inguinal lymph nodes and spleens. […] As determined by flow cytometric analysis, populations of Tregs and Teffs were consistently […] using this method (12). […]
Mice were postmortem transcardially perfused with PBS, followed by 4% para-formaldehyde (Sigma-Aldrich). […] Fluorojade C (FJ-C) staining (Millipore, Billerica, Mass.) was performed on adjacent sections, according to the manufacturer's protocol, to assess de-generating neurons and was quantified using ImageJ. Overall, dopaminergic neuron survival was assessed 7 d following MPTP intoxication and resolution of cell death processes with polyclonal Abs to mouse tyrosine hydroxylase (TH; 1:1000; EMD Chemicals/Calbiochem, San Diego, Calif.) and were counterstained for Nissl substance by thionin staining. […] Quantitation of striatal TH (1:500; EMD Chemicals/Calbiochem, Gibbstown, N.J.) was performed by densitometric analysis. […]

[3] = tested on: protease; experiment: In vitro protease stability assay; assay type: in vitro ADME; settings: FIG. 1; compared to Ro 25-1553 (one lactam bridge)
Procedure: In Vitro Stability Assay: Stock solutions of the both the naturally occurring peptides as well as peptide analogs are prepared at a concentration of 250 μM (based on UV absorbance) in a 2% DMSO solution of appropriate buffering conditions. Standard solution of proteinase K in addition to other common animal proteases (i.e. Cathepsins, Trypsins, dipeptidyl peptidase IV and chymotrypsin) were prepared at the following concentrations in appropriate buffers separately: Protease K: 250 μg/ml, Chymotrypsin 25 μg/mL and DPP-IV 40 units/ml. For a Protease K assay, the following recipe was followed: 1 μL enzyme was added to 5 μL peptide analog in 44 μL PBS. […] 50 μL of the resulting quenched reaction are then injected onto an analytical reverse phase HPLC, and the amount of starting peptide present quantified by integration of the appropriate chromatogram peak via absorbance at either 220 or 280 nm. […] Half-lives are determined by fitting time dependent peptide concentration to an exponential decay using GraphPad Prism. Samples for some time points will be analyzed by mass spectrometery, and the products observed are used to identify amide bonds cleaved in the course of the reaction. The relative stability enhancement is determined through the comparison of the various analogs with its naturally occurring peptide counterpart. […]

| Compound | suppressive capacity of Treg on T cell proliferation [1] | neuroprotection after adoptive transfer of splenocytes from drug-treated donors [2] | in-vitro protease stability [3] |
| --- | --- | --- | --- |
| HSDAVFTDNYTRLRKQMAVKKYLNSILN [VIP] | enhanced suppressive capacity | neuroprotective | – |
| CC(=O)N[C@@H](Cc1c[nH]cn1)C(=O)NC1CCCC1C(=O)N[C@@H](CC(=O)O)C(=O)N[C@@H](C)C(=O)NC1CCCC1C(=O)N[C@@H](Cc1ccccc1)C(=O)N[C@H](C(=O)N[C@@H](CCC(=O)O)C(=O)N[C@@H](CC(N)=O)C(=O)N[C@@H](Cc1ccc(O)cc1)C(=O)N[C@H](C(=O)N[C@@H](CCCCN)C(=O)N[C@@H](CC(C)C)C(=O)N[C@@H](CCCNC(=N)N)C(=O)N[C@@H](CCCCN)C(=O)N[C@@H](CCC(N)=O)C(=O)N[C@@H](CC(C)C)C(=O)N[C@@H](C)C(=O)N[C@@H](C)C(=O)NC1CNCC1C(=O)N[C@@H](CCCCN)C(=O)N[C@@H](Cc1ccc(O)cc1)C(=O)NC1CCCC1C(=O)N[C@@H](CC(N)=O)C(=O)N[C@@H](CC(=O)O)C(=O)N[C@@H](CC(C)C)C(=O)N[C@@H](CCCCN)CC(=O)N[C@@H](CCCCN)C(=O)NCC(=O)NCCC(=O)N[C@H](C(N)=O)[C@@H](C)O)[C@@H](C)O)[C@@H](C)O (stereo partly drawn) [LBT-V208, Ac-HxDAxFTENYTKLRKQLAAzKYxNDLkKGgT] (Ac-H[X3]DA[X3]FTENYTKLRKQLAA[ξ(4-Aminopyrrolidine-3-CO)]KY[X3]NDL[β3hK]KG[βAla]T-NH2) | – | – | stability is greater |
